Experimental data taken from PMC9671962 (Communications Biology, 2022).
Read-outs that look alike come from different tables or passages of the source.

Columns and labels:
PARP1 = details: cited from earlier work; for maximum standardized uptake values (SUVmax): clinical PET
[1] = set-up: method as in PMID 27841728, PMID 27261505; details: cited from earlier work
[2] = set-up: method as in PMID 27841728, PMID 28222073; details: cited from earlier work
neuroblastoma = details: cited from earlier work
[3] = set-up: method as in PMID 28408529; details: cited from earlier work
NB-EBC1x tumor = experiment: Biodistribution, autoradiography and tumor dosimetry in NB-EBC1x tumor-bearing mice; assay type: in vivo, female SCID CB17 mice; details: 1 hour
Method: At various time points mice were euthanized and tissues were harvested, weighed, and assayed for radioactivity by gamma counter. Decay corrected data presented as percent injected dose per gram of tissue (%ID/g). Human dosimetry was calculated using OLINDA/EXM software by fitting time activity curves for biodistribution data. Tissue autoradiography was performed by freezing excised tumors at 1 h postinjection of each respective treatment. One tumor was collected for each treatment group. Tumors were cryosectioned (Leica Cryotome) at a thickness of 20 µm. Each section was collected with a 200 µm gap and a total of three sections were collected for each tumor. Sections were then exposed to a phosphorfilm for 60 h and films were read on a Cyclone Plus phosphorimager (Perkin Elmer). Experimental conditions have been included in the Supplementary Methods.
Animal studies were performed in female mice due to the lack of sex-related differences for [^211At]PTT tolerability from initial dose response studies performed in female and male mice. Female mice were chosen due to their underlying behavior towards other study subjects that reduced nonstudy-related causes for decreased wellness. Pre-clinical efficacy studies were performed through “single mouse testing” to more closely recapitulate a clinical trial. […] Number size for treatment groups was determined by model tumor growth reproducibility, which was previously shown to have less than 5% normal variation with at least two animals. Statistical tests for tumor response and event-free survival (EFS) were performed as a grouped analysis that included all tumor models treated at each respective dose level (n = 2 per model per dose level). Statistical differences between treatment groups for tumor response was performed by paired-model T-test that compared reduction in tumor volume for the 36 MBq/kg dose level vs. 24 MBq/kg or 12 MBq/kg. Event free survival was measured by area over the curve method to quantify time to event, which was set as tumor growth exceeding 2 cm[3],[19]. Differences in EFS were tested across all treated models for each respective dose level, and against untreated controls, by paired-model ANOVA analysis. Associations of drug target expression and response were performed by linear regression analysis of EFS and PARP1 mRNA expression. Genetic signatures were visually presented as a function of EFS and no statistical tests were applied. Blood and marrow toxicity studies were performed with n = 5 sample sizes and powered to detect >20% differences between untreated controls and treated animals. Results were tested for significance by one-way ANOVA comparison from untreated controls. Marrow colony formation assays were performed in replicates of 2 for each mouse subject, dependent on marrow isolation, and all replicates are included in final analyses. Statistical analysis was performed by ordinary one-way ANOVA comparison between the mean of control and test groups. Biodistribution studies were performed with n = 3 mice per time-point. Human dosimetry was calculated using OLINDA/EXM v1.1 software by fitting time activity curves for biodistribution data in a healthy mouse model. Tumor dosimetry was calculated by OLINDA/EXM v1.1 by fitting time activity curves for NB-EBC1 tumors from biodistribution data. All statistical analyses were performed in GraphPad Prism version 9.3.1 unless indicated otherwise.

[4] = mice; cited from earlier work
[5] = in vitro; ref previously shown by the authors, no reference given; cited from earlier work

## O=C1NCCn2c(-c3ccc(OCC[18F])cc3)nc3cccc1c32 [[^18F]FTT, fluorine-18 Fluorthanatrace]
PARP1; adults
  estimated kidney dose: 0.018–0.027 mGy/MBq
PARP1; breast cancer
  maximum standardized uptake values (SUVmax): 4–7
PARP1; ovarian cancer patients, minimal wash-out
  time of rapid tumor uptake kinetics post injection: 60 to 180 min
PARP1; ovarian cancer
  maximum standardized uptake values (SUVmax): 2–9
[1]
  thyroid uptake: around 4 % ID/g
[2]
  hepatobiliary clearance, share of blood clearance: > 90%

## N=C(N)NCc1cccc([131I])c1 [[^131I]MIBG, iodine-131-metaiodobenzylguanidine]
neuroblastoma
  overall survival benefit: below 40%

## O=C([O-])CC[C@H](NC(=O)N[C@@H](CCCCNC(=O)[C@H](Cc1ccc2ccccc2c1)NC(=O)C1CCC(CNC(=O)CN2CCN(CC(=O)[O-])CCN(CC(=O)[O-])CCN(CC(=O)[O-])CC2)CC1)C(=O)[O-])C(=O)[O-].[225Ac].[H+].[H+].[H+] (stereo partly shown) [[^225Ac]PSMA-617]
[3]
  kidney dose: 740 mSv/MBq

## [211At] [free astatine-211, astatine-211, reference compound]
NB-EBC1x tumor; 2-way ANOVA p value 0.0088
  tumor uptake compared to [^211At]PTT: lower uptake in tumor
NB-EBC1x tumor; 2-way ANOVA p-value 0.0004
  thyroid uptake compared to [^211At]PTT: significantly higher uptake in thyroid
[4]
  MTD for a single dose: greater than 50 MBq/kg
[5]
  potency relative to [211At]PTT in vitro: < 100 times

## CNCc1ccc(-c2[nH]c3cc(F)cc4c3c2CCNC4=O)cc1 [rucaparib]
[2]
  hepatobiliary clearance, share of blood clearance: > 90%
